Patent publication US6239130A, “Phosphodiesterase 4-inhibiting diazepinoindolones” (Warner-Lambert Company, priority 1997, dated 2001)

Tested on: PDE4 enzyme of human origin
Assay: PDE4-inhibiting activity on an enzyme preparation obtained from the U937 cell line
Type: biochemical
Procedure: In the case of the PDE4 enzymes, this value is compared with that of rolipram, a specific PDE4 inhibitor. […] Measurement of the enzyme activity of the different types of PDE, and especially of the PDE4 enzymes, is then carried out according to a method adapted from W. J. Thompson, ibidem.

Q: Which IC50 does the source give for Cc1cc2c3c(c1)C(c1ccccc1)=NC(n1c(C)nc4cc(C(=O)OCCN5CCOCC5)ccc4c1=O)C(=O)N3CC2 (stereo not drawn) [Example 10, 2-(4-morpholinyl)ethyl 2-methyl-3-(9-methyl-4-oxo-1-phenyl-3,4,6,7-tetrahydro-[1,4]diazepino-[6,7,1-hi]indol-3-yl)-4-oxo-3,4-dihydroquinazoline-7-carboxylate] here?
A: 183 nM

Q: Which IC50 does the source give for Cc1cc2c3c(c1)C(c1ccccc1)=N[C@H](n1c(C)nc4cc(C(=O)O)ccc4c1=O)C(=O)N3CC2 [7D(R), (3R)-2-methyl-3-(9-methyl-4-oxo-1-phenyl-3,4,6,7-tetrahydro[1,4]diazepino[6,7,1-hi]indol-3-yl)-4-oxo-3,4-dihydroquinazoline-7-carboxylic acid] here?
A: 982 nM

Q: With COc1cccc2nc(C)n(C3N=C(c4ccccc4)c4cc(C)cc5c4N(CC5)C3=O)c(=O)c12 (stereo not drawn) [Example 6, 3-(5-methoxy-2-methyl-4-oxo-4H-quinazolin-3-yl)-9-methyl-1-phenyl-6,7-dihydro-3H-[1,4]diazepino[6,7,1-hi]indol-4-one] as the molecule, how does the IC50 read?
A: 3020 nM

Q: How did the IC50 turn out when Cc1cc2c3c(c1)C(c1ccccc1)=N[C@@H](n1c(C)nc4c(C)cccc4c1=O)C(=O)N3CC2 [Example 5, (3S)-9-methyl-3-(2,8-dimethyl-4-oxo-4H-quinazolin-3-yl)-1-ph enyl-6,7-dihydro-3H-[1,4]diazepino[6,7,1-hi]indol-4-one] was run?
A: 832 nM

Q: With COc1ccc2nc(C)n(C3N=C(c4ccccc4)c4cc(C)cc5c4N(CC5)C3=O)c(=O)c2c1 (stereo not drawn) [Example 6B, 3-(6-methoxy-2-methyl-4-oxo-4H-quinazolin-3-yl)-9-methyl-1-phenyl-6,7-dihydro-3H-[1,4]-diazepino[6,7,1-hi]indol-4-one] as the molecule, how does the IC50 read?
A: 1420 nM

Q: For Cc1cc2c3c(c1)C(c1ccccc1)=NC(n1c(C)nc4cc(C(=O)NCC(=O)O)ccc4c1=O)C(=O)N3CC2 (stereo not drawn) [Example 35D, N-(2-Methyl-3-(9-methyl-4-oxo-1-phenyl-3,4,6,7-tetrahydro[1,4]diazepino[6,7,1-hi]indol-3-yl)-4-oxo-3,4-dihydroquinazoline-7-carboxyl)glycine], which IC50 is on record?
A: 65 nM

Q: With Cc1cc2c3c(c1)C(c1ccccc1)=NC(n1c(C)nc4cc(C(=O)N[C@@H](CCC(=O)O)C(=O)O)ccc4c1=O)C(=O)N3CC2 (stereo partly drawn) [Example 35H, N-(2-Methyl-3-(9-methyl-4-oxo-1-phenyl-3,4,6,7-tetrahydro[1,4]diazepino[6,7,1-hi]indol-3-yl)-4-oxo-3,4-dihydroquinazoline-7-carboxyl)glutamic acid] as the molecule, how does the IC50 read?
A: 219 nM

Q: Which IC50 does the source give for COC(=O)[C@H](CCCCN)NC(=O)c1ccc2c(=O)n(C3N=C(c4ccccc4)c4cc(C)cc5c4N(CC5)C3=O)c(C)nc2c1 (stereo partly drawn) [Example 9I, Methyl (2S)-6-amino-2-{[2-methyl-3-(9-methyl-4-oxo-1-phenyl-3,4,6,7-tetrahydro-[1,4]diazepino[6,7,1-hi]indol-3-yl)-4-oxo-3,4-dihydroquinazolin-7-carbonyl]amino}hexanoate] here?
A: 119 nM

Q: Cc1cc2c3c(c1)C(c1ccccc1)=N[C@@H](n1c(C)nc4ccc(C)cc4c1=O)C(=O)N3CC2 [Example 4, (3S)-9-methyl-3-(2,6-dimethyl-4-oxo-4H-quinazolin-3-yl)-1-phenyl-6,7-dihydro-3H-[1,4]diazepino[6,7,1-hi]indol-4-one] was tested. Which IC50 did it give?
A: 553 nM

Q: Cc1cc2c3c(c1)C(c1ccccc1)=NC(n1c(C)nc4cccc(CO)c4c1=O)C(=O)N3CC2 (stereo not drawn) [Example 6D, 3-(5-hydroxymethyl-2-methyl-4-oxo-4H-quinazolin-3-yl)-9-methyl-1-phenyl-6,7-dibydro-3H-[1,4]-diazepino[6,7,1-hi]indol-4-one] was tested. Which IC50 did it give?
A: 372 nM

Q: Cc1cc2c3c(c1)C(c1ccccc1)=NC(n1c(C)nc4ccc(Br)cc4c1=O)C(=O)N3CC2 (stereo not drawn) [Example 6C, 3-(6-bromo-2-methyl-4-oxo-4H-quinazolin-3-yl)-9-methyl-1-phenyl-6,7-dihydro-3H-[1,4]diazepino-[6,7,1-hi]indol-4-one] was tested. Which IC50 did it give?
A: 838 nM

Q: For Cc1nc2cnccc2c(=O)n1C1N=C(c2ccccc2)c2cc(N)cc3c2N(CC3)C1=O (stereo not drawn) [Example 34, 9-Amino-3-(2-methyl-4-oxo-4H-pyrido[3,4-d]pyrimidin-3-yl)-1-phenyl-6,7-dihydro-3H-[1,4]diazepino[6,7,1-hi]indol-4-one], which IC50 is on record?
A: 42 nM

Q: For Cc1cc2c3c(c1)C(c1ccccc1)=NC(n1c(C)nc4cc(C(N)=O)ccc4c1=O)C(=O)N3CC2 (stereo not drawn) [Example 8, 2-methyl-3-(9-methyl-4-oxo-1-phenyl-3,4,6,7-tetrahydro-[1,4]diazepino[6,7,1-hi]indol-3-yl)-4-oxo-3,4-dihydroquinazoline-7-carboxamide], which IC50 is on record?
A: 50 nM

Q: Cc1ccc2nc(C)n(C3N=C(c4ccccc4)c4cc([N+](=O)[O-])cc5c4N(CC5)C3=O)c(=O)c2c1 (stereo not drawn) [Example 22, 3-(2,6-Dimethyl-4-oxo-4H-quinazolin-3-yl)-9-nitro-1-phenyl-6,7-dihydro-3H-[1,4]diazepino-[6,7,1-hi]indol-4-one] was tested. Which IC50 did it give?
A: 1730 nM

Q: Which IC50 does the source give for Cc1cc2c3c(c1)C(c1ccccc1)=NC(n1c(C)nc4cccc(C(=O)OC(C)(C)C)c4c1=O)C(=O)N3CC2 (stereo not drawn) [Example 6E, tert-Butyl 2-methyl-3-(9-methyl-4-oxo-1-phenyl-3,4,6,7-tetrahydro-[1,4]diazepino[6,7,1-hi]indol-3-yl)-4-oxo-3,4-dihydroquinazoline-5-carboxylate] here?
A: > 100000 nM

Q: CCOC(=O)[C@H](Cc1ccccc1)NC(=O)c1ccc2c(=O)n(C3N=C(c4ccccc4)c4cc(C)cc5c4N(CC5)C3=O)c(C)nc2c1 (stereo partly drawn) [Example 36, Ethyl 2-{[2-methyl-3-(9-methyl-4-oxo-1-phenyl-3,4,6,7-tetrahydro[1,4]diazepino[6,7,1-hi]indol-3-yl)-4-oxo-3,4-dihydroquinazolin0e-7-carbonyl]amino}-3-phenyl-(L)-propionate] was tested. Which IC50 did it give?
A: 312 nM

Q: With CCOC(=O)Cc1nc2ccccc2c(=O)n1C1N=C(c2ccccc2)c2cc(C)cc3c2N(CC3)C1=O (stereo not drawn) [Example 16, Ethyl [3-(9-methyl-4-oxo-1-phenyl-3,4,6,7-tetrahydro-[1,4]diazepino[6,7,1-hi]indol-3-yl)-4-oxo-3,4-dihydro-2-quinazolinyl]acetate] as the molecule, how does the IC50 read?
A: 260 nM

Q: With Cc1cc(C)c2nc(C)n(C3N=C(c4ccccc4)c4cc(N)cc5c4N(CC5)C3=O)c(=O)c2c1 (stereo not drawn) [Example 33, 9-Amino-3-(2,6,8-trimethyl-4-oxo-4H-quinazolin-3-yl)-1-phenyl-6,7-dihydro-3H-[1,4]diazepino[6,7,1-hi]indol-4-one] as the molecule, how does the IC50 read?
A: 155 nM

Q: Cc1cc2c3c(c1)C(c1ccccc1)=NC(n1c(C)nc4cc(C(=O)N[C@@H](CC(=O)O)C(=O)O)ccc4c1=O)C(=O)N3CC2 (stereo partly drawn) [Example 35F, N-(2-Methyl-3-(9-methyl-4-oxo-1-phenyl-3,4,6,7-tetrahydro[1,4]diazepino[6,7,1-hi]indol-3-yl)-4-oxo-3,4-dihydroquinazoline-7-carboxyl)aspartic acid] was tested. Which IC50 did it give?
A: 547 nM

Q: How did the IC50 turn out when Cc1cc2c3c(c1)C(c1ccccc1)=NC(n1c(C)nc4cc(C(=O)N5CCC[C@H]5C(=O)O)ccc4c1=O)C(=O)N3CC2 (stereo partly drawn) [Example 35G, N-(2-Methyl-3-(9-methyl-4-oxo-1-phenyl-3,4,6,7-tetrahydro[1,4]diazepino[6,7,1-hi]indol-3-yl)-4-oxo-3,4-dihydroquinazoline-7-carboxyl)proline] was run?
A: 291 nM

Q: With COC(=O)c1ccc2c(=O)n(C3N=C(c4ccccc4)c4cc(OC)cc5c4N(CC5)C3=O)c(C)nc2c1 (stereo not drawn) [Example 2B, Methyl 2-methyl-3-(9-methoxy-4-oxo-1-phenyl-3,4,6,7-tetrahydro[1,4]diazepino[6,7,1-hi]indol-3-yl)-4-oxo-3,4-dihydroquinazoline-7-carboxylate] as the molecule, how does the IC50 read?
A: 67 nM

Q: Cc1cc2c3c(c1)C(c1ccccc1)=NC(n1c(C)nc4cc(C(=O)N5CCN(CCO)CC5)ccc4c1=O)C(=O)N3CC2 (stereo not drawn) [Example 9G] was tested. Which IC50 did it give?
A: 137 nM

Q: How did the IC50 turn out when COCCOC(=O)c1ccc2c(=O)n(C3N=C(c4ccccc4)c4cc(C)cc5c4N(CC5)C3=O)c(C)nc2c1 (stereo not drawn) [Example 10B, 2-Methoxyethyl 2-methyl-3-(9-methyl-4-oxo-1-phenyl-3,4,6,7-tetrahydro[1,4]diazepino[6,7,1-hi]indol-3-yl)-4-oxo-3,4-dihydroquinazoline-7-carboxylate] was run?
A: 155 nM

Q: Which IC50 does the source give for Cc1cc2c3c(c1)C(c1ccccc1)=NC(n1c(C)nc4cc(C(=O)NCCN)ccc4c1=O)C(=O)N3CC2 (stereo not drawn) [Example 9D, 2-methyl-3-(9-methyl-4-oxo-1-phenyl-3,4,6,7-tetrahydro[1,4]diazepino[6,7,1-hi]indol-3-yl)-4-oxo-3,4-dihydroquinazoline-7-(2-amino)ethylcarboxamide] here?
A: 119 nM

Q: For Cc1ccc2c(=O)n(C3N=C(c4ccccc4)c4cc([N+](=O)[O-])cc5c4N(CC5)C3=O)c(C)nc2c1 (stereo not drawn) [Example 23, 3-(2,7-Dimethyl-4-oxo-4H-quinazolin-3-yl)-9-nitro-1-phenyl-6,7-dihydro-3H-[1,4]diazepino-[6,7,1-hi]indol-4-one], which IC50 is on record?
A: 497 nM

Q: Cc1cccc2c(=O)n(C3N=C(c4ccccc4)c4cc(N)cc5c4N(CC5)C3=O)c(C)nc12 (stereo not drawn) [Example 32, 9-Amino-3-(2,8-dimethyl-4-oxo-4H-quinazolin-3-yl)-l1-phenyl-6,7-dihydro-3H-[1,4]diazepino[6,7,1-hi]indole-4-one] was tested. Which IC50 did it give?
A: 55 nM

Q: With Cc1cc2c3c(c1)C(c1ccccc1)=NC(n1c(C)nc4cc(CO)ccc4c1=O)C(=O)N3CC2 (stereo not drawn) [Example 11, 3-(7-hydroxymethyl-2-methyl-4-oxo-4H-quinazolin-3-yl)-9-methyl-1-phenyl-6,7-dihydro-3H-[1,4]diazepino[6,7,1-hi]indol-4-one] as the molecule, how does the IC50 read?
A: 79 nM
